Reference: patent US4379917A, “6"-(Substituted)-apramycin antibiotic derivatives and intermediates and starting materials therefor” (Eli Lilly and Company, priority 1981, dated 1983)
≈ marks a conversion by molar mass, not a printed value. Where two headings read alike, the source gives them in different places.

Experiments:
Format in all cases: cell-based
[1] = test system: Bordetella bronchiseptica 16; test: MIC by standard agar dilution test
[2] = test system: Staphylococcus aureus 3055; test: MIC by standard agar dilution test
[3] = test system: Pseudomonas aeruginosa SF-2; test: MIC by standard agar dilution test
Serratia marcescens SE3 = test: MIC by standard agar dilution test
[4] = test system: Staphylococcus aureus 3074; test: MIC by standard agar dilution test; details: Table II, read-out: Minimum Inhibitory Concentration
From the text: (§1) The antibacterial activity of the antibiotic compounds of this invention is illustrated by the following in vitro and in vivo test data obtained with representative compounds. In Tables I and II the minimum inhibitory concentration (MIC) for representative compounds against a wide range of gram-positive and gram-negative bacteria is presented. The MIC values were obtained by the standard agar dilution test.

Salmonella typhosa SA12 = test: MIC by standard agar dilution test; details: Salmonella enterica, read-out: Minimum Inhibitory Concentration
[5] = test system: Pseudomonas aeruginosa 4276; test: MIC by standard agar dilution test
[6] = test system: Pseudomonas aeruginosa X239; test: MIC by standard agar dilution test
[7] = test system: Enterobacter aerogenes EB6; test: MIC by standard agar dilution test; details: Klebsiella aerogenes
[8] = test system: Pseudomonas aeruginosa X48; test: MIC by standard agar dilution test
Proteus morganii PR2 = test: MIC by standard agar dilution test; details: Morganella morganii, PR2; Table 1; agar dilution; read-out: Minimum Inhibitory Concentration
Salmonella typhimurium = test: MIC by standard agar dilution test; details: Salmonella enterica, read-out: Minimum Inhibitory Concentration
Escherichia coli EC14 = test: MIC by standard agar dilution test; details: EC14, Table II, agar dilution, read-out: Minimum Inhibitory Concentration
[9] = test system: Streptococcus faecalis X66; test: MIC by standard agar dilution test; details: Enterococcus faecalis, X66; Table II; agar dilution; read-out: Minimum Inhibitory Concentration
[10] = test system: Klebsiella pneumoniae KL2; test: MIC by standard agar dilution test; details: KL2, Table 1, agar dilution, read-out: Minimum Inhibitory Concentration
[11] = test system: Pseudomonas aeruginosa X528; test: MIC by standard agar dilution test
[12] = test system: Pseudomonas solanacearum X185; test: microbe, parasite or virus in culture; details: Ralstonia solanacearum, X185, read-out: Minimum Inhibitory Concentration
[13] = test system: Pseudomonas aeruginosa Ps25; test: MIC by standard agar dilution test
Serratia marcescens SE2 = test: MIC by standard agar dilution test; details: SE2, Table 1, agar dilution, read-out: Minimum Inhibitory Concentration
Serratia marcescens X99 = test: MIC by standard agar dilution test
[14] = test system: Enterobacter cloacae EN453; test: MIC by standard agar dilution test; details: EN453, Table 1, agar dilution, read-out: Minimum Inhibitory Concentration
[15] = test system: Klebsiella pneumoniae KL14; test: MIC by standard agar dilution test; details: KL14, read-out: Minimum Inhibitory Concentration
Proteus morganii PR15 = test: MIC by standard agar dilution test; details: Morganella morganii, PR15; Table II; agar dilution; read-out: Minimum Inhibitory Concentration
[16] = test system: Enterobacter aerogenes EB17; test: MIC by standard agar dilution test; details: Klebsiella aerogenes, EB17, read-out: Minimum Inhibitory Concentration
[17] = test system: Citrobacter freundii CF17; test: MIC by standard agar dilution test
Proteus inconstans PV25 = test: MIC by standard agar dilution test; details: Providencia alcalifaciens, PV25; Table 1; agar dilution; read-out: Minimum Inhibitory Concentration
[18] = test system: Pseudomonas aeruginosa Ps9; test: MIC by standard agar dilution test
[19] = test system: Enterobacter cloacae EB24; test: MIC by standard agar dilution test
[20] = test system: Pseudomonas aeruginosa PI23; test: MIC by standard agar dilution test
Proteus morganii PR1 = test: MIC by standard agar dilution test; details: Morganella morganii, PR1; Table 1; agar dilution; read-out: Minimum Inhibitory Concentration
[21] = test system: Pseudomonas aeruginosa Ps15; test: MIC by standard agar dilution test
Erwinia amylovora = test: MIC by standard agar dilution test; details: Table II, read-out: Minimum Inhibitory Concentration
From the text: as §1

[22] = SE3, Table 1, read-out: Minimum Inhibitory Concentration

Question: What does the source list for CN[C@@H]1[C@@H](O[C@H]2O[C@H](COS(C)(=O)=O)[C@@H](N)[C@H](O)[C@H]2O)O[C@H]2C[C@@H](N)[C@@H](O[C@H]3[C@H](O)[C@@H](O)[C@H](N)C[C@@H]3N)O[C@@H]2[C@@H]1O [Test Compound 1, 6"-O-(Methanesulfonyl)apramycin]?
Answer: MIC ([1]; Bordetella bronchiseptica, 16, Table II, agar dilution, read-out: Minimum Inhibitory Concentration): 16 µg/mL (≈ 25.9 µM); MIC ([2]; Staphylococcus aureus, 3055, read-out: Minimum Inhibitory Concentration): 2 µg/mL (≈ 3.24 µM); MIC ([3]; SF2, Table 1, agar dilution, read-out: Minimum Inhibitory Concentration): 128 µg/mL (≈ 207 µM); MIC (Serratia marcescens SE3; [22]): 8 µg/mL (≈ 13 µM); MIC (Serratia marcescens SE3; SE3, Table II, read-out: Minimum Inhibitory Concentration): 16 µg/mL (≈ 25.9 µM); MIC [4]: 4 µg/mL (≈ 6.48 µM); MIC (Salmonella typhosa SA12): 4 µg/mL (≈ 6.48 µM); MIC ([5]; Pseudomonas aeruginosa, 4276, Table 1, agar dilution, read-out: Minimum Inhibitory Concentration): > 128 µg/mL; MIC ([6]; X239, Table 1, read-out: Minimum Inhibitory Concentration): 128 µg/mL (≈ 207 µM); MIC ([6]; X239, read-out: Minimum Inhibitory Concentration, Table II): 4 µg/mL (≈ 6.48 µM); MIC ([7]; EB6, read-out: Minimum Inhibitory Concentration): 4 µg/mL (≈ 6.48 µM); MIC ([8]; X48, Table 1, agar dilution, read-out: Minimum Inhibitory Concentration): 128 µg/mL (≈ 207 µM); MIC (Proteus morganii PR2): 32 µg/mL (≈ 51.8 µM); MIC (Salmonella typhimurium): 4 µg/mL (≈ 6.48 µM); MIC (Escherichia coli EC14): 8 µg/mL (≈ 13 µM); MIC [9]: 32 µg/mL (≈ 51.8 µM); MIC [10]: 8 µg/mL (≈ 13 µM); MIC ([11]; X528, Table 1, agar dilution, read-out: Minimum Inhibitory Concentration): 128 µg/mL (≈ 207 µM); MIC [12]: 1 µg/mL (≈ 1.62 µM); MIC ([13]; PS25, Table 1, agar dilution, read-out: Minimum Inhibitory Concentration): 64 µg/mL (≈ 104 µM); MIC (Serratia marcescens SE2): 8 µg/mL (≈ 13 µM); MIC (Serratia marcescens X99; X99, read-out: Minimum Inhibitory Concentration): 4 µg/mL (≈ 6.48 µM); MIC [14]: 8 µg/mL (≈ 13 µM); MIC [15]: 4 µg/mL (≈ 6.48 µM); MIC (Proteus morganii PR15): 32 µg/mL (≈ 51.8 µM); MIC [16]: 4 µg/mL (≈ 6.48 µM); MIC ([17]; CF17, read-out: Minimum Inhibitory Concentration): 4 µg/mL (≈ 6.48 µM); MIC (Proteus inconstans PV25): 8 µg/mL (≈ 13 µM); MIC ([18]; PS9, Table 1, agar dilution, read-out: Minimum Inhibitory Concentration): > 128 µg/mL; MIC ([19]; EB24, read-out: Minimum Inhibitory Concentration): 4 µg/mL (≈ 6.48 µM); MIC ([20]; PI23, Table 1, agar dilution, read-out: Minimum Inhibitory Concentration): > 128 µg/mL; MIC (Proteus morganii PR1): 8 µg/mL (≈ 13 µM); MIC ([21]; PS15, Table 1, agar dilution, read-out: Minimum Inhibitory Concentration): 128 µg/mL (≈ 207 µM)

Question: With CN[C@@H]1[C@@H](O[C@H]2O[C@H](COS(=O)(=O)c3ccc(C)cc3)[C@@H](N)[C@H](O)[C@H]2O)O[C@H]2C[C@@H](N)[C@@H](O[C@H]3[C@H](O)[C@@H](O)[C@H](N)C[C@@H]3N)O[C@@H]2[C@@H]1O [Test Compound 2, 6"-O-(Para-toluenesulfonyl)apramycin] as the molecule, how does the MIC ([1]; Bordetella bronchiseptica, 16, read-out: Minimum Inhibitory Concentration) read?
Answer: 64 µg/mL (≈ 92.2 µM)

Question: And the MIC ([2]; Staphylococcus aureus, 3055, Table II, agar dilution, read-out: Minimum Inhibitory Concentration)?
Answer: < 0.5 µg/mL

Question: And the MIC ([3]; SF2, read-out: Minimum Inhibitory Concentration)?
Answer: > 128 µg/mL

Question: And the MIC (Serratia marcescens SE3; [22])?
Answer: 16 µg/mL (≈ 23.1 µM)

Question: And the MIC (Serratia marcescens SE3; SE3, read-out: Minimum Inhibitory Concentration, Table II)?
Answer: 32 µg/mL (≈ 46.1 µM)

Question: And the MIC (Erwinia amylovora)?
Answer: 2 µg/mL (≈ 2.88 µM)

Question: And the MIC [4]?
Answer: 2 µg/mL (≈ 2.88 µM)

Question: And the MIC (Salmonella typhosa SA12)?
Answer: 1 µg/mL (≈ 1.44 µM)

Question: What about the MIC ([5]; Pseudomonas aeruginosa, 4276, read-out: Minimum Inhibitory Concentration) of the same molecule?
Answer: > 128 µg/mL

Question: What about the MIC ([6]; X239, Table II, read-out: Minimum Inhibitory Concentration) of the same molecule?
Answer: 16 µg/mL (≈ 23.1 µM)

Question: And the MIC ([6]; X239, read-out: Minimum Inhibitory Concentration, Table 1)?
Answer: > 128 µg/mL

Question: And the MIC ([7]; EB6, Table 1, agar dilution, read-out: Minimum Inhibitory Concentration)?
Answer: 16 µg/mL (≈ 23.1 µM)

Question: What about the MIC ([8]; X48, read-out: Minimum Inhibitory Concentration) of the same molecule?
Answer: > 128 µg/mL

Question: What about the MIC (Proteus morganii PR2) of the same molecule?
Answer: 16 µg/mL (≈ 23.1 µM)

Question: And the MIC (Salmonella typhimurium; Table II, agar dilution)?
Answer: 4 µg/mL (≈ 5.77 µM)

Question: What about the MIC (Escherichia coli EC14) of the same molecule?
Answer: 4 µg/mL (≈ 5.77 µM)

Question: What about the MIC [9] of the same molecule?
Answer: 16 µg/mL (≈ 23.1 µM)

Question: What about the MIC [10] of the same molecule?
Answer: 16 µg/mL (≈ 23.1 µM)

Question: What about the MIC ([11]; X528, read-out: Minimum Inhibitory Concentration) of the same molecule?
Answer: > 128 µg/mL

Question: And the MIC [12]?
Answer: 1 µg/mL (≈ 1.44 µM)

Question: What about the MIC ([13]; PS25, read-out: Minimum Inhibitory Concentration) of the same molecule?
Answer: > 128 µg/mL

Question: What about the MIC (Serratia marcescens SE2) of the same molecule?
Answer: 16 µg/mL (≈ 23.1 µM)

Question: And the MIC (Serratia marcescens X99; X99, Table 1, agar dilution, read-out: Minimum Inhibitory Concentration)?
Answer: 16 µg/mL (≈ 23.1 µM)

Question: What about the MIC [14] of the same molecule?
Answer: 16 µg/mL (≈ 23.1 µM)

Question: And the MIC [15]?
Answer: 2 µg/mL (≈ 2.88 µM)

Question: What about the MIC (Proteus morganii PR15) of the same molecule?
Answer: 16 µg/mL (≈ 23.1 µM)

Question: And the MIC ([17]; CF17, Table II, agar dilution, read-out: Minimum Inhibitory Concentration)?
Answer: 4 µg/mL (≈ 5.77 µM)

Question: And the MIC (Proteus inconstans PV25)?
Answer: 16 µg/mL (≈ 23.1 µM)

Question: What about the MIC ([18]; PS9, read-out: Minimum Inhibitory Concentration) of the same molecule?
Answer: > 128 µg/mL

Question: And the MIC ([19]; EB24, Table 1, agar dilution, read-out: Minimum Inhibitory Concentration)?
Answer: 16 µg/mL (≈ 23.1 µM)

Question: And the MIC ([20]; PI23, read-out: Minimum Inhibitory Concentration)?
Answer: > 128 µg/mL

Question: And the MIC (Proteus morganii PR1)?
Answer: 16 µg/mL (≈ 23.1 µM)

Question: And the MIC ([21]; PS15, read-out: Minimum Inhibitory Concentration)?
Answer: > 128 µg/mL
